Assays:
LA cardiomyocytes = assay: Spontaneous SR Ca2+ release events (SCaEs) of isolated LA cardiomyocytes; format: cell-based, rat; details: baseline conditions; antioxidative treatment; both HFpEF groups
Description: Cardiomyocyte isolation. LA and LV cardiomyocytes were isolated using enzymatic digestion as previously described in detail. See Bode D, Guthof T, Pieske B M, Heinzel F R, Hohendanner F: “Isolation of Atrial Cardiomyocytes from a Rat Model of Metabolic Syndrome-related Heart Failure with Preserved Ejection Fraction,” J Vis Exp 2018(137).
Solutions and chemicals. Chemicals were obtained from Sigma-Aldrich (St. Louis, MO, USA) unless noted otherwise. The dual SGLT1/2 inhibitor sotagliflozin was provided by Lexicon Pharmaceuticals (The Woodlands, TX, USA). Fluorescent dyes Fura-2 AM, Rhod-2 AM, MitoTracker red, MitoTracker green, TMRE and H2-DCF were obtained from Thermo Fisher Scientific (Waltham, MA, USA). Tyrode solution contained (in mM): 130 NaCL, 4 KCl, 2 CaCl, 1 MgCl2, 10 Glucose, 10 HEPES; pH adjusted to 7.4 with NaOH. LA cardiomyocytes were plated on laminin-coated glass coverslips. 20 mM caffeine was added to Tyrode solution to induce sarcoplasmic reticulum (SR) Ca^2+ release and obtain a measure of SR Ca^2+ content. […]
Ca^2+ measurements and sarcomere shortening. Radiometric Ca^2+ measurements (excitation: 340 nm and 385 nm, emission: 510±10 nm; [Ca^2+] expressed as the ratio R=F340/F380) were performed either with a CytoCypher MultiCell System (CytoCypher BV, Netherlands; FIGS. 1C-F, 2D-G, 4A-F) or an Axiovert 200 microscope (Zeiss, Oberkochen, Germany) fluorescence imaging assembly (FIGS. 2A-C, 2H-J, 3A-E, 6E-I). […] Experiments were conducted at 37° C. and CaT were recorded at steady state (following electric stimulation).
CaT and sarcomere shortening of LA and LV cardiomyocytes were recorded for 10 s at 3 Hz stimulation. See FIGS. 2D-G, 4A-F. Electric stimulation was turned off and spontaneous SR Ca^2+ release events (See Voigt N, Heijman J, Wang Q, Chiang D Y, Li N, Karck M, Wehrens X H T, Nattel S, Dobrev D: “Cellular and molecular mechanisms of atrial arrhythmogenesis in patients with paroxysmal atrial fibrillation,” Circulation 2014, 129(2):145-156) (SCaEs) immediately recorded for a duration of 10 s (FIG. 1C-F). […]

[1] = tested on: high-fat diet/streptozotocin-induced diabetic rats; details: via improved mitochondrial function; cited from earlier work

SMILES	occurrence of SCaEs (LA cardiomyocytes)	diabetes related atrial fibrillation [1]
CC(=O)N[C@@H](CS)C(=O)O [acetylcysteine]	decreased	
OC[C@H]1O[C@@H](c2ccc(Cl)c(Cc3ccc(O[C@H]4CCOC4)cc3)c2)[C@H](O)[C@@H](O)[C@@H]1O [empagliflozin]		mitigate

From patent publication US20240100013A1, “SOTAGLIFLOZIN FOR IMPROVING LEFT ATRIAL FUNCTION” (CHARITÉ-UNIVERSITÄTSMEDIZIN BERLIN, priority 2021, published 2024)
